Assay results reported in US12214036B2, “Combination therapy comprising AXL/MER and PD-1/PD-L1 inhibitors” (Incyte Corporation, priority 2020, dated 2025).

Legend:
TYRO3 = target: T1, TYRO3 (Homo sapiens, UniProt Q06418); experiment: TR-FRET kinase assay, TYRO3; format: biochemical
T1 construct: recombinant phosphorylated forms of the kinase domains for AXL, MER and TYRO3; purchased Life Technologies PR7480A
T1 sequence (Q06418 518-790 limits assumed): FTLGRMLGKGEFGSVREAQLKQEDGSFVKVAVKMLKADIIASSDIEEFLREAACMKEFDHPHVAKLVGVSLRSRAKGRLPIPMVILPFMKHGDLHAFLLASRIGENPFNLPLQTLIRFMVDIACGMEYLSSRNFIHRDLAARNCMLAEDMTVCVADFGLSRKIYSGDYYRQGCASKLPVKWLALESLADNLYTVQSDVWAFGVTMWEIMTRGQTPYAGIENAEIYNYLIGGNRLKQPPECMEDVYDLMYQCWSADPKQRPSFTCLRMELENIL
Experimental: The biochemical potency of Compound 1 to inhibit the enzymatic activity of TAM family members was investigated by TR-FRET assays using recombinant phosphorylated forms of the kinase domains for AXL, MER and TYRO3.
Phospho-AXL (pAXL), cMER and Tyro3 kinase activities were measured by time-resolved fluorescence energy transfer (TR-FRET) assays. Autophosphorylation of AXL was carried out before the kinase assay by incubating the recombinant AXL protein (ThermoFisher Scientific; #PV4275) in buffer containing 50 mM Tris, pH 7.5, 0.2 mg/mL AXL, 5 mM ATP, 20 mM MgCl2 and 2 mM dithiothreitol (DTT) at room temperature for 1 hour. The kinase assay buffer contained 50 mM HEPES, pH 7.5, 10 mM MgCl2, 1 mM EGTA, 0.01% NP-40 and 2 mM DTT. Enzyme solutions of 0.69 nM phospho-AXL, or 0.088 nM cMER (Carna Biosciences, Kobe, Japan; #08-108) or 0.137 nM TYRO3 (Life Technologies, PR7480A) were prepared in assay buffer. […] The plate was incubated for 30 minutes at room temperature, and homogenous time resolved fluorescence (HTRF) signal was measured on a PheraStar FS plate reader (BMG Labtech, Ortenberg, Germany). Percent inhibition was calculated for each concentration, and half maximal inhibitory concentration (IC50) value was generated from curve fitting with GraphPad Prism software (San Diego, Calif.).

[1] = system: human PBMCs co-cultured with H1299 cells; experiment: H1299 / PBMC co-culture cytokine assay; format: cell-based; settings: 4 days
Experimental: The ability of Compound 1 to cooperate with checkpoint blockade to further boost antitumor responses was evaluated. H1299 lung cancer cells were co-cultured with stimulated human PBMCs treated with Compound 1, anti-human programmed cell death (PD)-1 antibody retifanlimab or the combination, and production of proinflammatory cytokines was assessed in two different experiments (FIG. 6).
H1299 cells were co-cultured with human PBMCs, each at 4 or 16×10^4 cells/mL in RPMI containing 10% FBS, 100 U/mL of penicillin-streptomycin (ThermoFisher Scientific; #15140-122) and 1× beta-mercaptoethanol (ThermoFisher Scientific; #21985-023). Compound 1 or retifanlimab were added as single agents or in combination to the cells. Anti-CD3 (BD Biosciences #555336), anti-CD28 (BD Biosciences #555725) or SEA (Toxin Technology, Sarasota, Fla.; #AT101red) were added at a final concentration of 1 μg/mL, 0.5 μg/mL or 100 ng/mL, respectively, to stimulate cell growth. Cultures were incubated at 37° C. in 5% CO2 incubator for 4 days. The supernatant was collected for cytokine analysis using a multiplex assay system (custom human ProcartaPlex Luminex kit, ThermoFisher Scientific; #PPX-15-MXRWE6P).

[2] = system: BAF3 cells expressing MER; experiment: BAF3-MER cell proliferation assay (CellTiter-Glo); format: cell-based; settings: Mus musculus, 48 hours, 2% FBS
Source text: To evaluate the cellular potency and selectivity within the TAM receptor family, mouse BAF3 cell lines with stable expression of AXL, MER, or TYRO3 were generated.
The cytoplasmic domain of AXL, MER, or TYRO3 fused with dimerization sequence and HA tag was cloned into a pMSCV (murine stem cell virus) vector with a puromycin-resistance marker to generate three constructs individually by electroporation into BAF3 cells. Single clones that were IL-3-independent and puromycin-resistant were selected and characterized. To evaluate effects on BAF3 cell proliferation, 1000 cells/well of BAF3, BAF3-AXL, BAF3 MER, or BAF3-TYRO3 cells were treated in the presence or absence of Compound 1 at various concentrations (10 concentration points with a three-fold dilution factor from the highest concentration of 10 μM) diluted in RPMI-1640 with 2% FBS for 48 hours in a 384-well plate. Cell viability was measured by ATP assay (CellTiter-Glo Assay, Promega, Madison, Wis.) according to the manufacturer's procedure. The data were converted to percent inhibition relative to DMSO control, and IC50 curves were fitted using GraphPad Prism software.

CC(C)C(=O)N1CCC(c2cc(-c3ccc(NC(=O)c4cn(C(C)C)c(=O)n(-c5ccccn5)c4=O)cc3)c3c(N)ncnn23)CC1 [Compound 1, N-(4-(4-Amino-7-(1-isobutyrylpiperidin-4-yl)pyrrolo[1,2-f][1,2,4]triazin-5-yl)phenyl)-1-isopropyl-2,4-dioxo-3-(pyridin-2-yl)-1,2,3,4-tetrahydropyrimidine-5-carboxamide]
IC50 (TYRO3; average from multiple lots, n=25, read-out: IC50 against TYRO3): 101 ± 27 nM
selectivity over TYRO3 (TYRO3; biochemical): approximately 30 fold
proinflammatory cytokine production ([1]; stimulated PBMCs + H1299, FIG. 6): induction of proinflammatory cytokines
induction of IFN-γ ([1]; stimulated PBMCs + H1299, FIG. 6B): induced
induction of tumor necrosis factor-α ([1]; stimulated PBMCs + H1299, FIG. 6C): induced
induction of granulocyte-macrophage colony-stimulating factor ([1]; stimulated PBMCs + H1299, FIG. 6D): induced
induction of IL-12 p70 ([1]; stimulated PBMCs + H1299, FIG. 6E): moderately induced
GI50 [2]: 14 ± 4.9 nM
